Laboratory results published in patent US12188040B2, “Method for enhancing gene expression using AAV vector” (priority 2018, dated 2025).
“And” between values parts separate entries of the source, which are not always exact repeats. Equal values may be shown once. Read-outs that look alike come from different tables or passages of the source.

What was measured:
HEK293 cells [1] = test system: HEK293 cells
Experimental: As the first procedure, 4 methods of the addition were carried out, including adding sucrose immediately (5 minutes or less) after the administration of the AAV vector, and the administration of the AAV vector immediately (5 minutes or less) after, 10 minutes after or 1 hour after adding sucrose to cells.
In the same manner as the above-described procedure, the GFP expression level was measured 3 days later.
In the same manner as the above-described procedures, the GFP expression level was measured 3 days later.
AAV3B-CMV-AcGFP was mixed in advance with sucrose at each of various concentrations, and the mixture was allowed to stand at room temperature for 1 hour followed by administration to cells. […] In order to prevent cell damage due to a buffer at the time of dilution of sucrose, medium replacement was carried out using a sucrose solution having the same concentration that was prepared by the medium 3 hours after the administration.

HepG2 cells [2] = test: GFP expression in HepG2 cells infected with AAV3B-CMV-AcGFP in the presence of sucrose; details: Exp 3, AAV3B-CMV-AcGFP 5×10^8 vg/well, 3 days
Experimental: (§1) Three types of AAV vectors (AAV3B, yf2AAV9 and AAVGT4) were used.
(§2) To the culture cells of (b) above, 6×10^7 to 5×10^8 vg/well of AAV3B-CMV-AcGFP expressing GFP described in Item (a) above was added, or 2×10^9 vg/well of yf2AAV9-CMV-AcGFP was added, and then the cells were cultured for 3 to 6 days.
(§3) The fluorescence intensity of GFP was measured using a plate reader (BioTek Japan) and comparison thereof was made. Further, the images of typical view fields were taken using the fluorescence microscope (Olympus IX83).
(§4) On a 96 well Optical bottom plate, 5×10^4 cells/well of HepG2 cells were seeded, and 5×10^8 vg/well of AAVGT4-CMV-AcGFP or 5×10^8 vg/well of AAV3B-CMV-AcGFP was added to the medium on the next day. […] To a sucrose (−) control, the medium in the same amount as that of the sucrose solution was added. After cell cultivation for 3 days under 5% CO2 at 37° C. in an incubator, the fluorescence intensity of GFP was measured using the plate reader and comparison thereof was made.

HepG2 cells [3] = test: GFP expression in HepG2 cells infected with AAVGT4-CMV-AcGFP in the presence of sucrose; details: Exp 3, AAVGT4-CMV-AcGFP 5×10^8 vg/well, 3 days
Experimental: as §1, §2, §3, §4

HEK293 cells [4] = test: GFP expression in HEK293 cells infected with yf2AAV9-CMV-AcGFP in the presence of sucrose; details: Exp 1, yf2AAV9-CMV-AcGFP 2×10^9 vg/well, 3 days
Experimental: as §2, §3
On a 96 well Optical bottom plate (ThermoFisher), 5×10^4 cells/well of HEK293 cells were seeded, and the next day, either 2×10^8 vg/well of AAV3B-CMV-AcGFP or 2×10^9 vg/well of yf2AAV9-CMV-AcGFP was added thereto. […] To a sucrose (−) control, the same amount of the medium as that of the sucrose solution was added. After cell cultivation for 3 days under 5% CO2 at 37° C. in an incubator, the fluorescence intensity of GFP was measured using the plate reader (BioTek Japan) and comparison thereof was made (FIG. 1A). Further, the images of typical view fields were taken using the fluorescence microscope (Olympus IX83) (FIG. 1B).

[5] = Exp 2, AAV3B 6×10^7 vg/well, iso-osmotic additives: sucrose 125.0, glucose 132.3, mannitol 132.3, NaCl 71.5 mM, 3 days
[6] = Exp 6, sucrose 187 mM, data not shown

## OC[C@H]1O[C@@](CO)(O[C@H]2O[C@H](CO)[C@@H](O)[C@H](O)[C@H]2O)[C@@H](O)[C@@H]1O [Sucrose, sucrose]
HEK293 cells [1]; Exp 1, AAV3B-CMV-AcGFP 2×10^8 vg/well, sucrose 125 mM final, 3 days
  GFP fluorescence intensity: 9257.45
HEK293 cells [1]; Exp 1, AAV3B-CMV-AcGFP 2×10^8 vg/well, sucrose 125 mM vs no sucrose, 3 days
  (+)/(−) GFP expression increase: 15.4 times
HEK293 cells [1]; [5]
  GFP intensity: 1844.8
  Relativeness (vs No Additive): 11 times and 11.2 times
HEK293 cells [1]; Exp 4A, AAV3B 1×10^8 vg/well, AAV 10 min after sucrose 125 mM, 3 days
  Fluorescence Intensity: 2580.3
HEK293 cells [1]; Exp 4A, AAV3B 1×10^8 vg/well, AAV 1 hr after sucrose 125 mM, 3 days
  Fluorescence Intensity: 3047
HEK293 cells [1]; Exp 4A, AAV3B 1×10^8 vg/well, AAV immediately after sucrose 125 mM, 3 days
  Fluorescence Intensity: 2356.2
HEK293 cells [1]; Exp 4A, AAV3B 1×10^8 vg/well, sucrose 125 mM added immediately after AAV, 3 days
  Fluorescence Intensity: 2500.8
HEK293 cells [1]; Exp 4A, AAV 10 min after sucrose 125 mM, 3 days
  Relativeness (vs Sucrose(−)): 10.5
HEK293 cells [1]; Exp 4A, AAV 1 hr after sucrose 125 mM, 3 days
  Relativeness (vs Sucrose(−)): 12.4
HEK293 cells [1]; Exp 4A, AAV immediately after sucrose 125 mM, 3 days
  Relativeness (vs Sucrose(−)): 9.6
HEK293 cells [1]; Exp 4A, sucrose 125 mM added immediately after AAV, 3 days
  Relativeness (vs Sucrose(−)): 10.2
HEK293 cells [1]; Exp 4A, sucrose 125 mM, any of the adding methods, 3 days
  Increase of expression: about 10 times
HEK293 cells [1]; Exp 4B, AAV3B 1×10^8 vg/well premixed with sucrose (125 mM final), administered 1 hr after mixing, 3 days
  Fluorescence Intensity: 3049.8
HEK293 cells [1]; Exp 4B, AAV3B 1×10^8 vg/well premixed with sucrose (125 mM final), administered immediately after mixing, 3 days
  Fluorescence Intensity: 3002.5
HEK293 cells [1]; Exp 4C, (+) => (+): sucrose from immediately after AAV, 3 days
  Relativeness (vs (−) => (−)): 4.9 times
HEK293 cells [1]; Exp 4C, (−) => (+): sucrose added 3 hours later, 3 days
  Relativeness (vs (−) => (−)): 2.8 times
HEK293 cells [1]; Exp 4C, AAV3B 1×10^8 vg/well, (+) => (+): sucrose 125 mM from immediately after AAV, 3 days
  Fluorescence Intensity: 534.5
HEK293 cells [1]; Exp 4C, AAV3B 1×10^8 vg/well, (−) => (+): sucrose 125 mM only from medium replacement 3 h after AAV, 3 days
  Fluorescence Intensity: 309.8
HEK293 cells [1]; Exp 6, after 3 days
  Optimum concentration for expression enhancement: 150 mM
HEK293 cells [1]; Exp 6, sucrose 80 mM, AAV3B 1×10^8 vg/well premixed 1 h, 3 days
  Fluorescence Intensity: 1026.0
HEK293 cells [1]; Exp 6, sucrose 90 mM, 3 days
  Relativeness (vs 0 mM): 6.4
HEK293 cells [1]; Exp 6, sucrose 90 mM, AAV3B 1×10^8 vg/well premixed 1 h, 3 days
  Fluorescence Intensity: 1230.5
HEK293 cells [1]; Exp 6, sucrose 100 mM, 3 days
  Relativeness (vs 0 mM): 8.1
HEK293 cells [1]; Exp 6, sucrose 100 mM, AAV3B 1×10^8 vg/well premixed 1 h, 3 days
  Fluorescence Intensity: 1568.3
HEK293 cells [1]; Exp 6, sucrose 105 mM, 3 days
  Relativeness (vs 0 mM): 9.2
HEK293 cells [1]; Exp 6, sucrose 105 mM, AAV3B 1×10^8 vg/well premixed 1 h, 3 days
  Fluorescence Intensity: 1769.3
HEK293 cells [1]; Exp 6, sucrose 110 mM, 3 days
  Relativeness (vs 0 mM): 10.1
HEK293 cells [1]; Exp 6, sucrose 110 mM, AAV3B 1×10^8 vg/well premixed 1 h, 3 days
  Fluorescence Intensity: 1952.3
HEK293 cells [1]; Exp 6, sucrose 115 mM, 3 days
  Relativeness (vs 0 mM): 12.2
HEK293 cells [1]; Exp 6, sucrose 115 mM, AAV3B 1×10^8 vg/well premixed 1 h, 3 days
  Fluorescence Intensity: 2351.3
HEK293 cells [1]; Exp 6, sucrose 120 mM, 3 days
  Relativeness (vs 0 mM): 15.3
HEK293 cells [1]; Exp 6, sucrose 120 mM, AAV3B 1×10^8 vg/well premixed 1 h, 3 days
  Fluorescence Intensity: 2941.0
HEK293 cells [1]; Exp 6, sucrose 125 mM, 3 days
  Relativeness (vs 0 mM): 18.8
HEK293 cells [1]; Exp 6, sucrose 125 mM, AAV3B 1×10^8 vg/well premixed 1 h, 3 days
  Fluorescence Intensity: 3626.8
HEK293 cells [1]; Exp 6, sucrose 130 mM, 3 days
  Relativeness (vs 0 mM): 21.1
HEK293 cells [1]; Exp 6, sucrose 130 mM, AAV3B 1×10^8 vg/well premixed 1 h, 3 days
  Fluorescence Intensity: 4069.0
HEK293 cells [1]; Exp 6, sucrose 135 mM, 3 days
  Relativeness (vs 0 mM): 25.0
HEK293 cells [1]; Exp 6, sucrose 135 mM, AAV3B 1×10^8 vg/well premixed 1 h, 3 days
  Fluorescence Intensity: 4813.3
HEK293 cells [1]; Exp 6, sucrose 140 mM, 3 days
  Relativeness (vs 0 mM): 29.2
HEK293 cells [1]; Exp 6, sucrose 140 mM, AAV3B 1×10^8 vg/well premixed 1 h, 3 days
  Fluorescence Intensity: 5620.5
HEK293 cells [1]; Exp 6, sucrose 145 mM, AAV3B 1×10^8 vg/well premixed 1 h, 3 days
  Fluorescence Intensity: 5763.8
HEK293 cells [1]; Exp 6, sucrose 150 mM, AAV3B 1×10^8 vg/well premixed 1 h, 3 days
  Fluorescence Intensity: 6411.8
HEK293 cells [1]; Exp 6, sucrose 160 mM, AAV3B 1×10^8 vg/well premixed 1 h, 3 days
  Fluorescence Intensity: 5922.5
HEK293 cells [1]; [6]
  Cell damage: damaged and detached
  Decrease of GFP intensity: about 20%
HEK293 cells [1]; Exp 8, disaccharide 100 mM in medium, AAV3B 1×10^8 vg/well, Day 3
  Fluorescence Intensity: 1312.7
HEK293 cells [1]; Exp 8, disaccharide 100 mM, Day 3
  Relativeness (vs No Sugar): 2.2
HEK293 cells [1]; Exp 8, disaccharide 125 mM in medium, AAV3B 1×10^8 vg/well, Day 3
  Fluorescence Intensity: 1760.5
HEK293 cells [1]; Exp 8, disaccharide 125 mM, Day 3
  Relativeness (vs No Sugar): 2.9
HEK293 cells [1]; Exp 8, disaccharide 150 mM in medium, AAV3B 1×10^8 vg/well, Day 3
  Fluorescence Intensity: 2979.5
HEK293 cells [1]; Exp 8, disaccharide 150 mM, AAV3B 1×10^8 vg/well, Day 1
  Fluorescence Intensity: 434.5
HEK293 cells [1]; Exp 8, disaccharide 150 mM, AAV3B 1×10^8 vg/well, Day 2
  Fluorescence Intensity: 1657.3
HEK293 cells [1]; Exp 8, disaccharide 150 mM, AAV3B 1×10^8 vg/well, Day 6
  Fluorescence Intensity: 7908.0
HEK293 cells [1]; Exp 8, disaccharide 150 mM, Day 3
  Relativeness (vs No Sugar): 4.9
HepG2 cells [2]; sucrose 125 mM vs none
  (+)/(−) GFP expression increase: 16.1 times
HepG2 cells [2]; sucrose 125 mM
  GFP fluorescence intensity: 970.8
HepG2 cells [3]; sucrose 125 mM vs none
  (+)/(−) GFP expression increase: 19.1 times
HepG2 cells [3]; sucrose 125 mM
  GFP fluorescence intensity: 579.8
HEK293 cells [4]; sucrose 125 mM final
  GFP fluorescence intensity: 321.4
HEK293 cells [4]; sucrose 125 mM vs no sucrose
  (+)/(−) GFP expression increase: 19.6 times
